Among the data in PubChem BioAssay (NCI) are TGI values, retold here.

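Assay format: 96-well plates, 48-hour exposure. TGI: concentration producing complete growth inhibition.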

Test systems include UO-31 renal; NCI/ADR-RES ovarian; SF-539 CNS; U251 CNS; HCT-15 colon; NCI-H226 lung; MDA-MB-435; SF-295 CNS; SK-MEL-28 melanoma; CAKI-1 renal; 786-0 renal; SNB-19 CNS; EKVX NSCLC; SK-OV-3 ovarian; SNB-75 CNS; SK-MEL-2 melanoma; RXF 393 renal; SF-268 CNS; A498 renal; HOP-62 NSCLC.
Common to all, as to assay: NCI-60 cell line screen, 48 h

With `CCOC(=O)C1(C#N)C(=O)c2cc[n+](CC[n+]3ccc4c(c3)C(=O)C(C#N)(C(=O)OCC)C4=O)cc2C1=O` (stereo not drawn), the TGI with UO-31 renal, in the assay with NCI/ADR-RES ovarian, with SF-539 CNS, in the assay with U251 CNS, in the assay on HCT-15 colon and in the assay on NCI-H226 lung was over 100 µM throughout. The TGI with MDA-MB-435, in the assay with SF-295 CNS, in the assay on SK-MEL-28 melanoma, with CAKI-1 renal, in the assay with 786-0 renal and in the assay with SNB-19 CNS was over 100 µM throughout. Besides, the TGI in the assay with EKVX NSCLC, in the assay on SK-OV-3 ovarian, in the assay with SNB-75 CNS, with SK-MEL-2 melanoma, with RXF 393 renal and in the assay with SF-268 CNS was over 100 µM in each case. The compound further gave a TGI with A498 renal of over 100 µM.

In the case of `Cn1c(=O)c2nc3c(=O)n(C)c(=O)n(CC(N)=O)c3nc2n(C)c1=O`, the TGI in the assay with UO-31 renal, in the assay with HOP-62 NSCLC, in the assay with NCI/ADR-RES ovarian, in the assay on SF-539 CNS, in the assay with U251 CNS and in the assay on HCT-15 colon was over 100 µM in each case. The TGI in the assay on NCI-H226 lung, in the assay on MDA-MB-435, with SF-295 CNS, in the assay with SK-MEL-28 melanoma, with CAKI-1 renal and in the assay with 786-0 renal was over 100 µM each time. Also, the TGI in the assay with SNB-19 CNS, in the assay with EKVX NSCLC, in the assay on SK-OV-3 ovarian, in the assay with SNB-75 CNS, in the assay with SK-MEL-2 melanoma and with RXF 393 renal was over 100 µM in each case. For the same compound, the TGI in the assay with SF-268 CNS and with A498 renal was over 100 µM in each case.

Regarding `Cc1c(/C=N/NC(=S)Nc2ccc(Cl)cc2)c(=O)n(-c2ccccc2)n1C`, the TGI in the assay on UO-31 renal is over 100 µM; in the assay on HOP-62 NSCLC, 27.5 µM; in the assay with NCI/ADR-RES ovarian, 48.9 µM; in the assay with SF-539 CNS it was 28.2 µM; with U251 CNS, 30.7 µM; in the assay on HCT-15 colon, over 100 µM. Further, the TGI with NCI-H226 lung was 53.8 µM; in the assay with MDA-MB-435, over 100 µM; with SF-295 CNS, 44.5 µM; in the assay on SK-MEL-28 melanoma, over 100 µM; with CAKI-1 renal it was over 48.3 µM; with 786-0 renal, 31.2 µM. The TGI in the assay with SNB-19 CNS is over 60.8 µM; with EKVX NSCLC, over 65.2 µM; in the assay on SK-OV-3 ovarian, 35.8 µM; in the assay on SNB-75 CNS, 35.8 µM; in the assay with SK-MEL-2 melanoma, 69 µM; in the assay with RXF 393 renal, 28 µM. Moreover, the TGI with SF-268 CNS is 39 µM; in the assay with A498 renal, over 58.8 µM.

Take `O=C1C2CCCCC2C(=O)N1n1c(-c2ccccc2)n[nH]c1=O` (stereo not drawn): the TGI in the assay on UO-31 renal, in the assay on HOP-62 NSCLC, in the assay with NCI/ADR-RES ovarian, in the assay with SF-539 CNS, in the assay with U251 CNS and with HCT-15 colon was over 100 µM each time. Moreover, the TGI with NCI-H226 lung, with MDA-MB-435, in the assay with SF-295 CNS, in the assay with CAKI-1 renal, with 786-0 renal and in the assay on SNB-19 CNS was over 100 µM each time. Besides, the TGI with EKVX NSCLC, in the assay on SK-OV-3 ovarian, in the assay with SNB-75 CNS, in the assay on SK-MEL-2 melanoma, in the assay with RXF 393 renal and in the assay with SF-268 CNS was over 100 µM each time. This compound showed a TGI with A498 renal of over 100 µM.

Take `O=C1OC(C2Cc3ccc4c(c3C2=O)CCC4)c2ccccc21` (stereo not drawn): the TGI in the assay on UO-31 renal, in the assay with HOP-62 NSCLC, in the assay on NCI/ADR-RES ovarian, in the assay on SF-539 CNS, in the assay on U251 CNS and with HCT-15 colon was over 100 µM throughout. Further, the TGI is 83.6 µM in the assay with NCI-H226 lung; over 100 µM in the assay on MDA-MB-435; over 100 µM with SF-295 CNS; over 100 µM in the assay on SK-MEL-28 melanoma; over 100 µM in the assay on CAKI-1 renal; over 100 µM with 786-0 renal. Also, the TGI with SNB-19 CNS, in the assay with EKVX NSCLC, in the assay on SK-OV-3 ovarian, in the assay with SNB-75 CNS, with SK-MEL-2 melanoma and in the assay on RXF 393 renal was over 100 µM throughout. For the same compound, the TGI in the assay with SF-268 CNS and in the assay on A498 renal was over 100 µM each time.

With `COC(=O)c1ccccc1CC1Cc2cc3c(cc2C1=O)CCC3` (stereo not drawn), the TGI in the assay on UO-31 renal was 86.3 µM; with HOP-62 NSCLC, over 94.4 µM; in the assay with NCI/ADR-RES ovarian, 21.8 µM; in the assay with SF-539 CNS it was 43.1 µM; with U251 CNS it was 42.3 µM; in the assay on HCT-15 colon, over 67.3 µM. The TGI with NCI-H226 lung is 63.7 µM; with MDA-MB-435, 10.7 µM; in the assay on SF-295 CNS it was 77.4 µM; with SK-MEL-28 melanoma it was over 100 µM; with CAKI-1 renal it was over 100 µM; with 786-0 renal it was 89.3 µM. Moreover, the TGI in the assay with SNB-19 CNS is over 100 µM; in the assay with EKVX NSCLC, over 100 µM; in the assay on SK-OV-3 ovarian, over 71.8 µM; in the assay with SNB-75 CNS it was 55.7 µM; with SK-MEL-2 melanoma, 19.7 µM; in the assay on RXF 393 renal it was 17.1 µM. Moreover, the results for the TGI in the assay on SF-268 CNS and in the assay on A498 renal were over 100 µM and over 61.1 µM, respectively.

With `O=C(O)CC(NC(=O)/C(=C/c1ccccc1)NC(=O)c1ccccc1)C(=O)O` (stereo not drawn), the TGI in the assay on UO-31 renal, with HOP-62 NSCLC, in the assay with NCI/ADR-RES ovarian, with SF-539 CNS, with U251 CNS and in the assay on HCT-15 colon was over 100 µM each time. Further, the TGI in the assay with NCI-H226 lung, in the assay on MDA-MB-435, with SF-295 CNS, with SK-MEL-28 melanoma, in the assay on CAKI-1 renal and with 786-0 renal was over 100 µM each time. For the same compound, the TGI in the assay with SNB-19 CNS, in the assay on EKVX NSCLC, in the assay on SK-OV-3 ovarian, in the assay on SNB-75 CNS, with SK-MEL-2 melanoma and in the assay with RXF 393 renal was over 100 µM each time. Also, the TGI in the assay with SF-268 CNS and in the assay with A498 renal was over 100 µM each time.
